Assay results published in ChEMBL document CHEMBL1124699, “3-Hydroxy-3-methylglutaryl-coenzyme A reductase inhibitors. 6. Trans-6-[2-(substituted-1-naphthyl)ethyl(or ethenyl)]-3,4,5,6-tetrahydro-4-hydroxy-2H-pyran-2-ones” (J Med Chem, 1990).

Experiments:
[1] = biological target: T1, 3-hydroxy-3-methylglutaryl-coenzyme A reductase (Rattus norvegicus, UniProt P51639); assay: Inhibitory activity against HMG-CoA reductase
T1 sequence (P51639 whole entry): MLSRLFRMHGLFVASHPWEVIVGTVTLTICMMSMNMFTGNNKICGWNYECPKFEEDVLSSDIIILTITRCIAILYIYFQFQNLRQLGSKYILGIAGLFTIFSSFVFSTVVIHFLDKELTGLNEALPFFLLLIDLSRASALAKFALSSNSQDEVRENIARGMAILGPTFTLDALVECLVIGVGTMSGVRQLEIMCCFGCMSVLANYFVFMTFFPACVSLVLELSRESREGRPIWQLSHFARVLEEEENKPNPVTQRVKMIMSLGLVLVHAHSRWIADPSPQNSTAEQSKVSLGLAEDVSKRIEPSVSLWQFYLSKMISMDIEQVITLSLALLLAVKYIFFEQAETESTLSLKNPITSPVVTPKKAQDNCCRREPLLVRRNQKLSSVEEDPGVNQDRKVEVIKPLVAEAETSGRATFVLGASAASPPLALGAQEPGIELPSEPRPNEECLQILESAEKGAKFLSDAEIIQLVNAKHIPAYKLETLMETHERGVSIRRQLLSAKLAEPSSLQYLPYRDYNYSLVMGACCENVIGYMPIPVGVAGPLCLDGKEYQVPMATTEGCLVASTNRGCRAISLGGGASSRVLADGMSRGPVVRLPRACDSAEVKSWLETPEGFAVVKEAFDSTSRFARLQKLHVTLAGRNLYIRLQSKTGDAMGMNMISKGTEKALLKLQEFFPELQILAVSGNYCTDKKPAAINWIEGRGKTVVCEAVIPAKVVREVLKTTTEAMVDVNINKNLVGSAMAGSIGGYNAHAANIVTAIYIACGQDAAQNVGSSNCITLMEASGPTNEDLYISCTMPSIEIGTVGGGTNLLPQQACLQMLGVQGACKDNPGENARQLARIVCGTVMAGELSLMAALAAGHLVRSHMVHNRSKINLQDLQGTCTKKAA

[2] = biological target: T2, 3-hydroxy-3-methylglutaryl-coenzyme A reductase (Rattus norvegicus) (UniProt P51639); assay: Potency against HMG-CoA reductase relative to Compactin
T2 sequence (whole entry): T1 sequence (P51639 whole entry)

| SMILES | IC50 [1] [nM] | Relative potency [2] |
| --- | --- | --- |
| Cc1cc(Cl)c2ccc(Cl)cc2c1CCC1C[C@@H](O)CC(=O)O1 (some centres undefined) | 60 | 30 |
| Cc1cc(C)c2ccc(Cl)cc2c1CCC1C[C@@H](O)CC(=O)O1 (some centres undefined) | 200 | 7 |
| Cc1cc(Cl)c(CCC2C[C@@H](O)CC(=O)O2)c2cc(Cl)ccc12 (some centres undefined) | 130 | 15 |
| O=C1C[C@H](O)CC(CCc2ccc(Cl)c3cc(Cl)ccc23)O1 (some centres undefined) | 7000 | 0.3 |
| O=C1C[C@H](O)C[C@@H](/C=C/c2ccc(Br)c3ccccc23)O1 | 4000 | 0.96 |
| O=C1C[C@H](O)C[C@@H](/C=C/c2cccc3cccc(Br)c23)O1 | 4120 | 0.72 |
| Cc1ccc2c(C)cc(C)c(CCC3C[C@@H](O)CC(=O)O3)c2c1 (some centres undefined) | 360 | 5 |
| O=C1C[C@H](O)C[C@@H](/C=C/c2c(Cl)ccc3ccccc23)O1 | 1510 | 2.3 |
| O=C1C[C@H](O)CC(CCc2cccc3ccccc23)O1 (some centres undefined) | 81000 | 0.043 |
| O=C1C[C@H](O)CC(CCc2c(Cl)cc(Cl)c3ccc(Cl)cc23)O1 (some centres undefined) | 32 | 47 |
| O=C1C[C@H](O)CC(CCc2c(Cl)cc(Cl)c3cc(Cl)ccc23)O1 (some centres undefined) | 33 | 46 |
| O=C1C[C@H](O)CC(CCc2ccc(Br)c3ccccc23)O1 (some centres undefined) | 23300 | 0.15 |
